Results taken from patent publication US11945794B2, “Nuclear transport modulators and uses thereof” (Karyopharm Therapeutics Inc., priority 2013, dated 2024).
pIC50: −log10 of the molar value.

Columns and labels:
Assay in all cases: MTT assay panel
Type in all cases: cell-based
BL-2 = settings: BL2; BL-2 cells, 72 hours
Procedure: (§1) Compound 124 was further tested against a panel of selected solid and hematological cancer cell lines and selected normal cell lines in an MTT assay. Briefly, the various cell lines above were plated at different densities on day 1. […] Cell Titer AQueous One was added to each well, and the plates were read in a plate reader at OD 495.

DB = settings: Homo sapiens; DB cells, 72 hours
Procedure: as §1

Pfieffer = Pfieffer cells, 72 hours
Procedure: as §1

SW-837 = settings: Homo sapiens, SW837; SW-837 cells, 72 hours
Procedure: as §1

SW-948 = settings: Homo sapiens, SW948; SW-948 cells, 72 hours
Procedure: as §1

SHP-77 = settings: Homo sapiens, SHP77; SHP-77 cells, 72 hours
Procedure: as §1

SW-900 = settings: Homo sapiens, SW900; SW-900 cells, 72 hours
Procedure: as §1

TFK-1 = TFK-1 cells, 72 hours
Procedure: as §1

Farage = Farage cells, 72 hours
Procedure: as §1

Colo-205 = settings: Homo sapiens; Colo-205 cells, 72 hours
Procedure: as §1

HTB-38 = HTB-38 cells, 72 hours
Procedure: as §1

SHSY5Y = settings: Homo sapiens, SH-SY5Y; SHSY5Y cells, 72 hours
Procedure: as §1

U-266 = settings: Homo sapiens; U-266 cells, 72 hours
Procedure: as §1

MDA-MB-231 = settings: Homo sapiens; MDA-MB-231 cells, 72 hours
Procedure: as §1

MDA-MB-361 = settings: Homo sapiens; MDA-MB-361 cells, 72 hours
Procedure: as §1

NCI-H2122 = settings: Homo sapiens; NCI-H2122 cells, 72 hours
Procedure: as §1

NCI-H2170 = settings: Homo sapiens; NCI-H2170 cells, 72 hours
Procedure: as §1

SK-CO-1 = settings: Homo sapiens; SK-CO-1 cells, 72 hours
Procedure: as §1

NCI-H747 = settings: Homo sapiens; NCI-H747 cells, 72 hours
Procedure: as §1

MM1R = settings: MM.1R; MM1R cells, 72 hours
Procedure: as §1

PANC-10.05 = settings: Homo sapiens, Panc1005; PANC-10.05 cells, 72 hours
Procedure: as §1

HS-Sultan = HS-Sultan cells, 72 hours
Procedure: as §1

LS-174T = settings: Homo sapiens, LS174T; LS-174T cells, 72 hours
Procedure: as §1

SW-1417 = settings: Homo sapiens, SW1417; SW-1417 cells, 72 hours
Procedure: as §1

Toledo = settings: Homo sapiens; Toledo cells, 72 hours
Procedure: as §1

KG-1 = settings: Homo sapiens; KG-1 cells, 72 hours
Procedure: as §1

AML-193 = AML-193 cells, 72 hours
Procedure: as §1

OCIAML5 = settings: Homo sapiens, OCI-AML-5; OCIAML5 cells, 72 hours
Procedure: as §1

HCT116.1 = HCT116.1 cells, 72 hours
Procedure: as §1

SW-1116 = settings: Homo sapiens; SW-1116 cells, 72 hours
Procedure: as §1

HCC-827 = settings: Homo sapiens, HCC827; HCC-827 cells, 72 hours
Procedure: as §1

NCI-H889 = settings: Homo sapiens; NCI-H889 cells, 72 hours
Procedure: as §1

PATU-8902 = PATU-8902 cells, 72 hours
Procedure: as §1

HPAC = settings: Homo sapiens; HPAC cells, 72 hours
Procedure: as §1

HCT-15 = settings: Homo sapiens; HCT-15 cells, 72 hours
Procedure: as §1

MHCC97H = settings: Homo sapiens; MHCC97H cells, 72 hours
Procedure: as §1

Z-138 = settings: Homo sapiens; Z-138 cells, 72 hours
Procedure: as §1

NCI-H69 = settings: Homo sapiens; NCI-H69 cells, 72 hours
Procedure: as §1

MO7e = MO7e cells, 72 hours
Procedure: as §1

PL-45 = settings: PL45; PL-45 cells, 72 hours
Procedure: as §1

NC(=O)/C(=C/n1cnc(-c2cc(C(F)(F)F)cc(C(F)(F)F)c2)n1)c1cncnc1 [Compound 124, (E)-3-(3-(3,5-bis(trifluoromethyl)phenyl)-1H-1,2,4-triazol-1-yl)-2-(pyrimidin-5-yl)acrylamide]
pIC50 (BL-2): 7.52 | pIC50 (DB): 7.22 | pIC50 (Pfieffer): 6.85 | pIC50 (SW-837): 6.30 | pIC50 (SW-948): < 5.00 | pIC50 (SHP-77): 6.39 | pIC50 (SW-900): 5.73 | pIC50 (TFK-1): < 5.00 | pIC50 (Farage): 6.34 | pIC50 (Colo-205): 6.92 | pIC50 (HTB-38): < 5.00 | pIC50 (SHSY5Y): 7.30 | pIC50 (U-266): 6.64 | pIC50 (MDA-MB-231): 6.92 | pIC50 (MDA-MB-361): < 5.00 | pIC50 (NCI-H2122): 6.08 | pIC50 (NCI-H2170): 5.67 | pIC50 (SK-CO-1): 6.37 | pIC50 (NCI-H747): 7.15 | pIC50 (MM1R): 8.10 | pIC50 (PANC-10.05): 6.00 | pIC50 (HS-Sultan): 7.22 | pIC50 (LS-174T): 5.00 | pIC50 (SW-1417): < 5.00 | pIC50 (Toledo): 7.15 | pIC50 (KG-1): 7.05 | pIC50 (AML-193): 5.71 | pIC50 (OCIAML5): 7.40 | pIC50 (HCT116.1): 6.70 | pIC50 (SW-1116): 6.39 | pIC50 (HCC-827): 6.34 | pIC50 (NCI-H889): 5.99 | pIC50 (PATU-8902): 6.39 | pIC50 (HPAC): 5.00 | pIC50 (HCT-15): 6.34 | pIC50 (MHCC97H): < 5.00 | pIC50 (Z-138): 8.22 | pIC50 (NCI-H69): 5.79 | pIC50 (MO7e): 7.70 | pIC50 (PL-45): 5.16
